For data set [1], the system named is LNCaP. The data set can be described thus: Cytotoxicity against human LNCAP cells assessed as reduction in cell viability after 4 days by MTT assay in presence of DHT and E2. The data set is classed as functional, cell-based. The conditions noted are these: 96 h. In general terms: Tetrazolium dyes change colour on reduction, which living cells bring about.
The subject of data set [2] is LNCaP. The data set can be described thus: Cytotoxicity against human LNCAP cells assessed as reduction in cell viability at 10 uM after 3 days by MTT assay in presence of DHT and E2. Format: functional, cell-based.
For the next data set, the system named is C2C12. In words: Cytotoxicity against mouse C2C12 cells assessed as reduction in cell viability at 10 uM after 3 days by MTT assay. The data set is classed as cell-based. The conditions noted are these: c2c12, 72 h.
For data set [3], the target named is T1, Glucocorticoid receptor (Homo sapiens) (UniProt P04150).
T1 sequence (whole entry): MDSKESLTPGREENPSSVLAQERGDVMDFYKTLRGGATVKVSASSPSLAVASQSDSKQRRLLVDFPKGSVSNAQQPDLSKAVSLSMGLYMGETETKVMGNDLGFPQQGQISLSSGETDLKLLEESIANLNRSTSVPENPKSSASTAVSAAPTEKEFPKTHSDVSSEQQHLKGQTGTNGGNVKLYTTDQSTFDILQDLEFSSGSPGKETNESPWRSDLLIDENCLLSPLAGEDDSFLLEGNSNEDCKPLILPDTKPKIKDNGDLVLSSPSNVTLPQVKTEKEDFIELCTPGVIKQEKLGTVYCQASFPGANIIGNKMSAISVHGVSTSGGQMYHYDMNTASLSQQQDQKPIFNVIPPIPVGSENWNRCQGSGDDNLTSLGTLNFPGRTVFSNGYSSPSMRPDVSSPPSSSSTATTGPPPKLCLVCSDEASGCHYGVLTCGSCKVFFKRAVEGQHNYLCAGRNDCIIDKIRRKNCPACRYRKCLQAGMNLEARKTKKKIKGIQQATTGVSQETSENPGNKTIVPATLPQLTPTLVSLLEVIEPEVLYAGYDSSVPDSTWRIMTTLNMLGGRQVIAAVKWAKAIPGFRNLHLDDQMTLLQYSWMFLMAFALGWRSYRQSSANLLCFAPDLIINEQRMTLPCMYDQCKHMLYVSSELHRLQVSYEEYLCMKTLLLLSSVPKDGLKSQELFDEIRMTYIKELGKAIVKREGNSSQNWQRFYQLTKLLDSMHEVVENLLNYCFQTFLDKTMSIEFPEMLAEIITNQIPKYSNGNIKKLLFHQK
In words: Antagonist activity at glucocorticoid receptor (unknown origin) expressed in mouse C2C12 cells at 5 uM pretreated for 1 day measured 36 hrs post transfection by luciferase reporter gene assay in presence of GR agonist […]. The data set is classed as cell-based. (A reporter such as luciferase makes a cellular process visible.)

In data set [4] the target is T2, Androgen receptor (Mus musculus) (UniProt P19091).
T2 sequence (whole entry): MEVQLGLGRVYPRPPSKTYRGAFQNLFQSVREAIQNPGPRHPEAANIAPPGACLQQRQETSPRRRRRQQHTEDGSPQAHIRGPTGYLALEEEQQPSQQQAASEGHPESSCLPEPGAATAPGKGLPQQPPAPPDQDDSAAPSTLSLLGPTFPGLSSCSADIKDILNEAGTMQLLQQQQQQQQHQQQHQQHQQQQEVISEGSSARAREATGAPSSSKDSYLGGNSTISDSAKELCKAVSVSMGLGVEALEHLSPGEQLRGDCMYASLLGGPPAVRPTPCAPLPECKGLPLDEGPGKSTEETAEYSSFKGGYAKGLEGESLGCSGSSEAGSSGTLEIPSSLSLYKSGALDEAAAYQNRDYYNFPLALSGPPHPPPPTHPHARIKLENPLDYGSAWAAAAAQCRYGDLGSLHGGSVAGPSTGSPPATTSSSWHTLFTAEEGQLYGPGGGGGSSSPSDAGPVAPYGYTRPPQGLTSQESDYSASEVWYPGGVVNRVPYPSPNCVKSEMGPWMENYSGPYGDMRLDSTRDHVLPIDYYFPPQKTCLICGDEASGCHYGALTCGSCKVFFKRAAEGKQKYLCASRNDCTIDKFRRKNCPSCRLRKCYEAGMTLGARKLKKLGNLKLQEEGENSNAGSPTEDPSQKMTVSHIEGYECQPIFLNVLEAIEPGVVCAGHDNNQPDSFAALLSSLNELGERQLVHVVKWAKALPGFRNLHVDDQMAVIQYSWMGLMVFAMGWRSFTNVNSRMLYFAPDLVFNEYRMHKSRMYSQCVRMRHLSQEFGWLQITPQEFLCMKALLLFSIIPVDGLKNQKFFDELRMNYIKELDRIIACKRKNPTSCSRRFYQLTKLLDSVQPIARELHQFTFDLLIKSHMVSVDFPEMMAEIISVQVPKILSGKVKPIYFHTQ
The data set can be described thus: Antagonist activity at mouse androgen receptor expressed in mouse C2C12 cells at 5 uM pretreated for 1 day measured 36 hrs post transfection by luciferase reporter gene assay in presence of DHT. The data set is classed as cell-based.

In data set [5] the test system is LNCaP. In words: Cytotoxicity against human LNCAP cells assessed as growth inhibition at 10 uM after 5 days by MTT assay relative to control. Format: functional.
Data set [6] deals with T3, Estrogen receptor (Homo sapiens) (UniProt P03372).
T3 sequence (whole entry): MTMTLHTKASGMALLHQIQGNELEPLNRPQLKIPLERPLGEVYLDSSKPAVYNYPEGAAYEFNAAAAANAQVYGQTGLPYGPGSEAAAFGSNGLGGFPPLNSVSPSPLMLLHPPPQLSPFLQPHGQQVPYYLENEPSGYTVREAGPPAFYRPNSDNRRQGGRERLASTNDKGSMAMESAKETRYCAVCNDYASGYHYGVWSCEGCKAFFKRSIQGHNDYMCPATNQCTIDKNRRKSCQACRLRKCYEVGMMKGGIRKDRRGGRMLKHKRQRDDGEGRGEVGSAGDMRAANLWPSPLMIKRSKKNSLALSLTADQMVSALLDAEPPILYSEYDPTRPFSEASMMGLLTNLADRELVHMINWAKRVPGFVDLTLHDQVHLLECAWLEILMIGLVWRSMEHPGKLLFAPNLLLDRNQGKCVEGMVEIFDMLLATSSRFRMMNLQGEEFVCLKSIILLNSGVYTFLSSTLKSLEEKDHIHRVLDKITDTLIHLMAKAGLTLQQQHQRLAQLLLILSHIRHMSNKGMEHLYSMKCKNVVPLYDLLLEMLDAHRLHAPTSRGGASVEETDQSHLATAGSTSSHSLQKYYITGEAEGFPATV
The data set can be described thus: Antagonist activity at human estrogen receptor expressed in mouse C2C12 cells at 5 uM pretreated for 1 day measured 36 hrs post transfection by luciferase reporter gene assay in presence of ER agonist estradiol. The data set is classed as cell-based.

Activity calls are given as the source filed them. The calls are words filed in the database; no cut-off is given here.

For the molecule `Cc1cccc(NC(=O)c2ccc(N3CCc4ccccc4C3)nc2)n1`, the IC50 in the data set with LNCaP [1] amounted to 4460 nM.
With `COc1cccc(NC(=O)c2cnc(N3CCc4ccccc4C3)nc2)c1`, the result in the data set with LNCaP [2] was Active. Further, the IC50 in the data set on LNCaP [1] was 580 nM. In addition, the Activity entry in the data set on C2C12 is “Non-toxic”. For the same molecule, in data set [3], the inhibition result is “inactive”. Also, the inhibition entry in data set [4] was “Active”.
Turning to `Cc1cccc(NC(=O)c2ccc(N3CCc4cc(OCCCc5ccccc5)ccc4C3)nc2)n1`, the inhibition of growth at 10 µM in the data set with LNCaP [5] (120 h, read-out: GI) came out at 80%. Besides, in the data set on LNCaP [2], the outcome was Active. Moreover, in the data set with LNCaP [1], the IC50 turned out to be 350 nM. Further, the Activity result in the data set on C2C12 is “Non-toxic”. For the same molecule, the inhibition result in data set [3] is “inactive”. In addition, the inhibition result in data set [4] was “Active”.
As to `CCCCOc1ccc2c(c1)CCN(c1ccc(C(=O)Nc3cccc(C)n3)cn1)C2`, in the data set with LNCaP [5], the “growth inhibition (GI)” value was “Active”. Besides, the result with LNCaP [2] was Active. For the same molecule, the IC50 with LNCaP [1] was 410 nM. The Activity result in the data set with C2C12 is reported as “Non-toxic”. The inhibition result in data set [3] is “inactive”. Moreover, the inhibition result in data set [4] is “Active”.
For the molecule `COc1ccc2c(c1)CCN(c1cnc(C(=O)Nc3cccc(C)n3)cn1)C2`, the “growth inhibition (GI)” value with LNCaP [5] was “Active”. For the same molecule, in the data set with LNCaP [2], the outcome was Active. For the same molecule, the IC50 with LNCaP [1] turned out to be 490 nM. Also, in the data set on C2C12, the Activity result was “Non-toxic”. In addition, the inhibition result in data set [3] was “inactive”. Also, the inhibition result in data set [4] was “Active”.
As to `Cc1cccc(NC(=O)c2ccc(N3CCc4cc(O)ccc4C3)nc2)n1`, the “growth inhibition (GI)” value in the data set with LNCaP [5] was “Active”. Besides, the inhibition entry in data set [6] and in data set [4] was “Active” throughout. Further, the outcome with LNCaP [2] was Active. In addition, the IC50 with LNCaP [1] worked out at 1250 nM. Besides, in the data set with C2C12, the Activity result was “Non-toxic”. In addition, in data set [3], the inhibition entry was “inactive”.
Regarding `CC(O)(CS(=O)(=O)c1ccc(F)cc1)C(=O)Nc1ccc(C#N)c(C(F)(F)F)c1` (stereo not drawn) [BICALUTAMIDE], in the data set with LNCaP [1], the IC50 was 2380 nM.
Consider `CCCOc1ccc2c(c1)CCN(c1ccc(C(=O)Nc3cccc(C)n3)cn1)C2`, for which the “growth inhibition (GI)” value in the data set with LNCaP [5] is “Active”. Further, the outcome with LNCaP [2] was Active. The IC50 in the data set on LNCaP [1] stood at 1010 nM. Besides, the Activity result in the data set with C2C12 was “Non-toxic”. In addition, the inhibition entry in data set [3] is “inactive”. Also, the inhibition result in data set [4] is “Active”.

A word on the IC50: it is the concentration at which inhibition is half-maximal.

For the origin of these results see ChEMBL document CHEMBL3745625, “Design and synthesis of novel androgen receptor antagonists via molecular modeling” (Bioorg Med Chem, 2016).
